US20250019346A1, “Salts of Ruxolitinib and Crystalline Forms Thereof” (Apotex Inc., priority 2021, published 2025)
Where two headings read alike, the source gives them in different places.

Key:
[1] = Comparative intrinsic dissolution testing (Wood apparatus); format: physicochemical; details: 900 mL deionized water, 75 rpm, sample compressed at 1.5 metric tons for 1 minute
Protocol: Intrinsic dissolution rate (IDR) measurements were performed using a Wood apparatus. Samples were prepared by compressing 250-300 mg sample at 1.5 metric tons for 1 minute. A dissolution medium consisting of 900 mL deionized water, and rotation speed of 75 rpm, was used for each experiment.

[2] = uncapped samples, 40° C./75% RH
Protocol: PXRD diffractograms were recorded on a Bruker D8 Discover powder X-ray diffractometer (Bruker AXS LLC, Karlsruhe, Germany). The generator was a Incoatec Microfocus Source (IμS) Cu tube (λ=1.54060 Å) with a voltage of 50 kV and current of 1.00 mA, using a divergence slit of 0.1 mm and collimator of 2.0 mm. For each sample, two frames were collected using a still scan with a PILATUS3 R 100K-A detector at the distance of 294.2 mm from the sample. Raw data were evaluated using the program DIFFRAC.EVA (Bruker AXS LLC, Karlsruhe, Germany).

[3] = pH values 1.2, 4.5 and 6.8
[4] = per CDER review, NDA 202192; cited from earlier work

Structure (SMILES) | Intrinsic Dissolution Rate [1] [mg min^−1 cm^−2] | Change in the crystalline form (PXRD) ([2]; at least 5 months) | other results
CC1=CC(=O)NS(=O)(=O)O1.N#CCC(C1CCCC1)n1cc(-c2ncnc3[nH]ccc23)cn1 (stereo not shown) [Ruxolitinib acesulfamate Form APO-II] | 0.0767 | no change in the crystalline form occurred | –
CC1=CC(=O)NS(=O)(=O)O1.N#CC[C@H](C1CCCC1)n1cc(-c2ncnc3[nH]ccc23)cn1 [Ruxolitinib acesulfamate Form APO-I] | 0.2261 | – | Change in the crystalline form (PXRD) ([2]; 8 weeks): no change in the crystalline form occurred
N#CCC(C1CCCC1)n1cc(-c2ncnc3[nH]ccc23)cn1.O=S(=O)(O)CCS(=O)(=O)O (stereo not shown) [Ruxolitinib edisylate Form APO-I] | 0.1711 | no change in the crystalline form occurred | –
CS(=O)(=O)O.N#CC[C@H](C1CCCC1)n1cc(-c2ncnc3[nH]ccc23)cn1 [Ruxolitinib mesylate Form APO-I] | – | – | Change in the crystalline form (PXRD) ([2]; at least 8 months): no change in the crystalline form occurred; Solubility [3]: high solubility
N#CCC(C1CCCC1)n1cc(-c2ncnc3[nH]ccc23)cn1.O=S(=O)(O)c1cccc2c(S(=O)(=O)O)cccc12 (stereo not shown) [Ruxolitinib napadisylate Form APO-I] | – | no change in the crystalline form occurred | –
N#CC[C@H](C1CCCC1)n1cc(-c2ncnc3[nH]ccc23)cn1 [Ruxolitinib phosphate] | 0.0545 | – | Biopharmaceutics Classification System (BCS) class [4]: Class I; Permeability [4]: high permeability; Solubility [4]: high solubility
